# Target: T1, multimeric extracellular GPBP (Homo sapiens, UniProt Q9Y5P4)
# T1 construct: made in house; host or cells: Sf9 insect cells (baculovirus), purified from culture medium
# T1 sequence (Q9Y5P4 1-624): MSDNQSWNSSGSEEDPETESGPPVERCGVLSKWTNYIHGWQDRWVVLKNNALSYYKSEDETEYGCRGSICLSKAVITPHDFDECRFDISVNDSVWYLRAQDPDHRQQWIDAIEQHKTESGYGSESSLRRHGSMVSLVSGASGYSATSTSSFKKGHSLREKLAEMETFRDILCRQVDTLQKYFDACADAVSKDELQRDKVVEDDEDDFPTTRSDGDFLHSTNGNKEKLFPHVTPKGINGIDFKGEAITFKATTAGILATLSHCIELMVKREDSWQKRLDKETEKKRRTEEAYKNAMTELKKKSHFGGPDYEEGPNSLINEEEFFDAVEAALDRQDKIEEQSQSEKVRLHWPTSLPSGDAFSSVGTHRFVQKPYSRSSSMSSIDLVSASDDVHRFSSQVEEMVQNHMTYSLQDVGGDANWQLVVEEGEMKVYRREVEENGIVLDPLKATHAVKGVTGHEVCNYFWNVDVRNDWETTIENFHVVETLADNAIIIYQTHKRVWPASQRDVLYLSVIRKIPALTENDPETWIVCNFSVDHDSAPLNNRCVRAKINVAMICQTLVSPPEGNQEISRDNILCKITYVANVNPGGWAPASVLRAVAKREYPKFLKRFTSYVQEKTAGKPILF
# Experiment: In vitro phosphorylation assay with multimeric extracellular GPBP
# Type: biochemical
# Conditions: T12 50 μM; autophosphorylation, γ[32P]ATP; FIG. 2
# Experimental: FIG. 2. […] Multimeric extracellular and trimeric intracellular GPBP were purified by affinity chromatography and subsequent gel filtration chromatography, and used for in vitro phosphorylation assays in absence (−) or presence (+) of T12 (50 μM). Reactions were subjected to SDS-PAGE, Western blot onto PVDF membrane and autoradiography, and further protein detected with anti-FLAG primary antibodies. Autoradiography and anti-FLAG® bands were quantified with WCIF IMAGEJ® software, and the normalized kinase activity estimated. Shown are normalized kinase activities. […] Samples were analyzed in triplicate and the data represents the Mean (±SEM) of three independent assays.
# FLAG®-tagged GPBP was expressed using Bac-to-Bac® Baculovirus Expression System. […] Finally, purified protein was quantified with Bio-Rad Protein Assay and stored at −20° C. […]
# Typically, about 270 ng of purified FLAG®-GPBP protein, either extracellular multimer or intracellular trimer, were incubated in presence or absence of T12 […] in a kinase assay buffer containing 25 mM disodium β-glycerophosphate, 8 mM MgCl2, 0.5 mM EDTA, 0.5 mM EGTA, 1 mM DTT, 5 mM MnCl2 during 10 min at 37° C. […] Then reactions were stopped with SDS-PAGE loading buffer and heat (95° C., 3 min) and analyzed by SDS-PAGE, electro-transference to PVDF membrane (Merck Millipore) and autoradiography. […]
compound,measurement,value
"COc1ccc(-c2ccc(-c3cccc(C)c3)c(C)c2)c(CCC(=O)O)c1 [T12, 3-[4″-methoxy-3,2′-dimethyl-(1,1′;4′,1″)terphenyl-2″-yl] propionic acid]",normalized kinase activity of GPBP,targeted extracellular GPBP multimer

# Source: patent publication US20160184274A1, “Methods for inhibiting mesenchymal phenotype after epithelial-to-mesenchymal transition” (Fibrostatin, S.L., priority 2014, published 2016)
